In patent US20090192153A1, “NOVEL ADENINE COMPOUND” (priority 2005, published 2009):
pEC50: −log10 of the molar value.

These compounds were tested against T1, human TLR7 (Homo sapiens, UniProt Q9NYK1) (assay: Human TLR7 reporter assay (NF-kB-SEAP in HEK293 cells)). Settings: HEK293 cells stably carrying human TLR7 plasmid and NF-kB-SEAP reporter plasmid; 20 hours culture; final concentration 1 nM-10 μM; absorbance 405 nm; read-out: Human TLR7 binding activity (EC50).
T1 construct: expressed in transfected cells; host or cells: HEK293 (hTLR7/seap-293), stably transfected
T1 sequence (Q9NYK1 27-1049): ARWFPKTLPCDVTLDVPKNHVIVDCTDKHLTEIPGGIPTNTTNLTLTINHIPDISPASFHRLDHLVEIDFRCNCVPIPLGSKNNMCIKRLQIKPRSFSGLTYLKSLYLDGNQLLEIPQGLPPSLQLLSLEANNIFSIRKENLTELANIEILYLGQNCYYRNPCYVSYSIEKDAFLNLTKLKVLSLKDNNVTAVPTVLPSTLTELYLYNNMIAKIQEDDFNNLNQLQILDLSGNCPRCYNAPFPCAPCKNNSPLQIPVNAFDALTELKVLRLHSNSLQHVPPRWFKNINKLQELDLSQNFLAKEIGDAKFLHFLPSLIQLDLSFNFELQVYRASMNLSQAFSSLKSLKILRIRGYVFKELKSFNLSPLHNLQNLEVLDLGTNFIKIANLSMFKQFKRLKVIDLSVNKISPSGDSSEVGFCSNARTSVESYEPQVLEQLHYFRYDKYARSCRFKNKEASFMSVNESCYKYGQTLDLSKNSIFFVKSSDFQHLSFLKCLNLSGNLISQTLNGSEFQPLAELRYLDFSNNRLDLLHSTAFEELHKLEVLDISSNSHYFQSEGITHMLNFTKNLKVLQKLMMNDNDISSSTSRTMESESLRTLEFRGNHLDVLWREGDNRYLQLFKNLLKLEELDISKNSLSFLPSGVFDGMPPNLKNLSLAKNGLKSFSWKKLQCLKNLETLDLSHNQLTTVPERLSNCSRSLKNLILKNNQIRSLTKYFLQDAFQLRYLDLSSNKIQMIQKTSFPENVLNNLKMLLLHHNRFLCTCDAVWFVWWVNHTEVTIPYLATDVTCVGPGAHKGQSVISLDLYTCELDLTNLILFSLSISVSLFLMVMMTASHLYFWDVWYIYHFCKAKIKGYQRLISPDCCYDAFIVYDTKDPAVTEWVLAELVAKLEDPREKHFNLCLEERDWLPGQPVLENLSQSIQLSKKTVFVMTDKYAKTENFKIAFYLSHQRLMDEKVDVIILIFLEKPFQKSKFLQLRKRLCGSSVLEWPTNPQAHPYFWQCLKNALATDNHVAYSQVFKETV
Format: cell-based
Procedure: Human TLR7 Reporter Assay
HEK293 cells in which human TLR7 or rat TLR7 plasmid and reporter plasmid (NF-kB-SEAP) are stably introduced are dispersed in DMEM broth (10% FBS, 1% NEAA, 10 ug/mL blastocidin S HCl, 100 ug/mL Zeocin), and were seeded to 96 well plate per 90 μl/well (hTLR7/seap-293:20000 cells/well, rTLR7/seap-293:25000 cells/well).
Test compound (DMSO stock solution (2 μl) was diluted with the broth (200 μl) by 100 times) was added to the seeded cells to a 96 well plate (10 μl/well) (final concentration; 1 nM-10 μM, common ratio 3). After stirring by tapping side of the plate, the cells were cultured in a CO2 incubator for 20 hours. A substrate (50 μl/well) for reporter assay (substrate for SEAP, pNPP) was added to cells stimulated by test sample. Ten minutes after adding the substrate, the reaction quenching solution (4N NaOH) was added by 50 μl/well to cease enzymatic reaction. Sealing a top seal A on the plate, the absorbance was measured by a micro plate reader (405 nm).

Structure (SMILES)	pEC50
CCCCOc1nc(N)c2[nH]c(=O)n(CCCCCN3CCC(C(=O)OC)CC3)c2n1 [Example 1, 2-Butoxy-7,8-dihydro-9-[5-(4-methoxycarbonylpiperidin-1-yl)pentyl]-8-oxoadenine]	6.84
CCCCOc1nc(N)c2[nH]c(=O)n(CCCCCN3CCCC(CC(=O)OC)C3)c2n1 (stereo not drawn) [Example 3, 2-Butoxy-7,8-dihydro-9-[5-(3-methoxycarbonylmethylpiperidin-1-yl)pentyl]-8-oxoadenine]	6.24
CCCCOc1nc(N)c2[nH]c(=O)n(CCN3CCCC(C(=O)OC)C3)c2n1 (stereo not drawn) [Example 5, 2-Butoxy-7,8-dihydro-9-[2-(3-methoxycarbonylpiperidin-1-yl)ethyl]-8-oxoadenine]	6.09
CCCCOc1nc(N)c2[nH]c(=O)n(CCN3CCN(CCC(=O)OC)CC3)c2n1 [Example 7, 2-Butoxy-7,8-dihydro-9-[2-{4-(2-methoxycarbonylethyl)piperazin-1-yl}ethyl]-8-oxoadenine]	5.32
CCCCOc1nc(N)c2[nH]c(=O)n(CCCN3CCC(C(=O)OC)CC3)c2n1 [Example 8, 2-Butoxy-7,8-dihydro-9-[3-(4-methoxycarbonylpiperidin-1-yl)propyl]-8-oxoadenine]	5.91
CCCCOc1nc(N)c2[nH]c(=O)n(CCCN3CCCC(C(=O)OC)C3)c2n1 (stereo not drawn) [Example 9, 2-Butoxy-7,8-dihydro-9-[3-(3-methoxycarbonylpiperidin-1-yl)propyl]-8-oxoadenine]	6.00
CCCCOc1nc(N)c2[nH]c(=O)n(CCCN3CCC(CC(=O)OC)CC3)c2n1 [Example 11, 2-Butoxy-7,8-dihydro-9-{3-[4-(2-methoxy-2-oxoethyl)piperidin-1-yl]propyl}-8-oxoadenine]	5.49
CCCCOc1nc(N)c2[nH]c(=O)n(CCCN3CCCC(CC(=O)OC)C3)c2n1 (stereo not drawn) [Example 12, 2-Butoxy-7,8-dihydro-9-{3-[3-(2-methoxy-2-oxoethyl)piperidin-1-yl]propyl}-8-oxoadenine]	5.79
CCCCOc1nc(N)c2[nH]c(=O)n(CCCCCCN3CCC(C(=O)OC)CC3)c2n1 [Example 15, 2-Butoxy-7,8-dihydro-9-[6-(4-methoxycarbonylpiperidin-1-yl)hexyl]-8-oxoadenine]	7.02
CCCCOc1nc(N)c2[nH]c(=O)n(CCCCCCCN3CCC(C(=O)OC)CC3)c2n1 [Example 16]	6.84
CCCCOc1nc(N)c2[nH]c(=O)n(CCCCCCCCN3CCC(C(=O)OC)CC3)c2n1 [Example 17, 2-Butoxy-7,8-dihydro-9-[8-(4-methoxycarbonylpiperidin-1-yl)octyl]-8-oxoadenine]	6.83
CCCCOc1nc(N)c2[nH]c(=O)n(CCCCN3CCCC(C(=O)OC)C3)c2n1 (stereo not drawn) [Example 19, 2-Butoxy-7,8-dihydro-9-[4-(3-methoxycarbonylpiperidin-1-yl)butyl]-8-oxoadenine]	6.20
